In paper PMC6736360, “P-Glycoprotein–Mediated Efflux Reduces the In Vivo Efficacy of a Therapeutic Targeting the Gastrointestinal Parasite Cryptosporidium” (The Journal of Infectious Diseases, 2019):
Values after ≈ are worked out from the molar mass of the structure shown. “Also recorded” adds a separate entry of the source. Like-named read-outs stand apart in the source and are kept apart here.

Key:
Caco-2 cells = assay: Caco-2 trans-well apparent permeability assay; type: in vitro ADME; conditions: Caco-2
Method: To initially characterize the permeability of BKIs 1294, 1369, and 1318, the software MedChem Designer (Simulations +, Lancaster, CA) was used to predict the Peff. The in vitro apparent permeability (Papp) was carried out by Absorption Systems LP (Exton, PA) with a Caco-2 trans-well assay. Caco-2 cells (clone C2BBe1) were obtained from American Type Culture Collection (Manassas, VA) were grown to confluence on collagen-coated, microporous membranes in 12-well assay plates. The permeability assay buffer was Hanks’ balanced salt solution (HBSS) containing 10 mM HEPES and 15 mM glucose at a pH of 7.4. The buffer in the receiver chamber also contained 1% bovine serum albumin. The dosing solution concentration was 5 µM BKI in assay buffer, and the cell monolayers were dosed on the apical side (A?B) or basolateral side (B?A) and incubated at 37°C with 5% CO2 in a humidified incubator. After 120 minutes, samples were taken from the donor and receiver chambers in duplicate. The Papp was calculated with equation (1) and the percent recovery with equation (2).
Papp = (dCr/dt) × Vr/(A × CA) (1)
Percent Recovery = 100 × ((Vr × Cr^final) + (Vd × Cd^final))/(Vd × […]) (2)
where dCr/dt is the slope of the cumulative concentration in the receiver compartment versus time in µM s^-1; Vr is the volume of the receiver compartment in cm^3; Vd is the volume of the donor compartment in cm^3; A is the area of the insert (1.13 cm^2 for 12-well); CA is the average of the nominal dosing concentration and the measured 120 minute donor concentration in µM; CN is the nominal concentration of the dosing solution in µM; Cr^final is the cumulative receiver concentration in µM at the end of the incubation period; Cd^final is the concentration of the donor in µM at the end of the incubation period.
To ensure no damage was inflicted to the cell monolayers during the flux period, lucifer yellow flux was also measured post-experimentally for each monolayer. To determine whether BKIs 1294, 1369, and 1318 were substrates of P-gp in vitro, P-gp efflux was characterized using the Caco-2 permeability assay protocol with a few modifications. The dosing solution concentration was 5 μM of BKI in the assay buffer +/- 1 μM valspodar. Cells were first pre-incubated for 30 minutes with HBSS containing +/- 1 μM valspodar. Cell monolayers were dosed on the apical side (A?B) or basolateral side (B?A), and incubated at 37°C with 5% CO2 in a humidified incubator. Samples were taken from the donor and receiver chambers at 120 minutes. Each determination was performed in duplicate.

C. parvum [1] = assay: Hollow fiber in vitro Cryptosporidium culture with polarized HCT-8 cells; type: cell-based, Cryptosporidium parvum
Method: C. parvum was cultured using a hollow fiber bioreactor modified for evaluation of potential chemotherapeutic compounds [[21–23]]. Briefly, the system used a 20-kD MWCO polysulfone fiber cartridge (FiberCell Systems, Frederick, MD). HCT-8 cells were grown on the outer surface of the fibers (extracapillary space), and reservoirs were used to provide nutrients to the cells. When the glucose concentration decreased to at least 2 g/L, the extracapillary space was inoculated with 10^6C. parvum (Iowa isolate, Bunch Grass Farms, Deary, ID). […] Compound concentration was reduced over time by the flow of medium through the extracapillary and intracapillary spaces. Samples were removed from the extracapillary space once per day for evaluation of parasite numbers.
C. parvum growth was determined by analysis of the amount of C. parvum 18S-rRNA present and compared to the HCT-8 18S-rRNA as previously described^3. Briefly this was performed by centrifugation at 14,000 x g for 5 min of 0.5 mL samples collected from the extracapillary space (ECS). The pellet was resuspended in 100 µL of iScript buffer and subject to 6-freeze/thaw cycles comprising 1 min in liquid nitrogen followed by 1.5 min at 70 °C. The lysate was collected by centrifugation at 16,162 x g for 5 min, and the RNA purified according to the manufacturer’s instructions (iScriptTM, RT-qPCR sample preparation kit, Bio-Rad Laboratories). C. parvum was enumerated by quantitating the Cp18S-rRNA using the following specific forward and reverse primers - Cp18S-995F: 5’-[…]-3’ and Cp18S-1206R: 5’-[…]-3’ and compared to the human Hs18S-rRNA using the following primer sets - Hs18S-F1373: 5’-[…]-3’ and Hs18S-R1561: 5’-[…]-3’. The amount of 18S-rRNA was determined using 5 ng samples by RT-qPCR as described the manufacturer instructions using a Luna Universal One-Step® RT-qPCR kit (New England Biologics) and a Quant Studio 6 Flex 44 instrument. The cell number is calculated from the CT means using a set of standards prepared from 10^4, 10^5, and 10^6 C. parvum oocysts and compared to 10^4, 10^5, and 10^6 HCT-8 cells.

Cryptosporidium = test system: Cryptosporidium; parameters: method as in PMID 28329187; conditions: cited from earlier work
Cryptosporidium parvum = assay: C. parvum growth inhibition, nonpolarized HCT-8 coculture assay; type: cell-based; conditions: Cryptosporidium parvum
Excerpt: Information regarding C. parvum growth inhibition by BKIs, the hollow fiber model, liquid chromatography–tandem mass spectrometry (LC-MS/MS) methods, and the interferon γ (IFN-γ) knockout (KO) mouse model of C. parvum infection has been described in detail previously [[15], [20–23]]. Information on BKI permeability, LC-MS/MS quantification of elacridar, and quantification of Cryptosporidium by polymerase chain reaction analysis is described in the Supplementary Materials. Unless noted otherwise, statistical significance was determined with an unpaired Student t test, using a significance level of 0.05.
To evaluate the potential impact of P-gp efflux on BKI1318 in vitro efficacy, in vitro assays with polarized and nonpolarized HCT-8 cells were evaluated. The nonpolarized HCT-8 coculture assay to screen anti-Cryptosporidium drug candidates has been previously reported by us in detail. […] Based on the reported elacridar half maximal inhibitor concentration for the inhibition of P-gp, the P-gp activity was predicted to be reduced with both elacridar concentrations. […] Elacridar alone had no effect on C. parvum levels.

[2] = In vitro solubility at pH 2 and 6.5; type: physicochemical
Method: Figure 1. Structures, in vitro efficacy, and physicochemical properties of bumped kinase inhibitors (BKIs). […] Solubilities for each BKI were measured at pH 2 and 6.5, to represent the stomach and small intestinal environments, respectively. The human effective permeability (Peff) was predicted as described in Materials and Methods.

C. parvum [3] = test system: C. parvum; parameters: method as in PMID 28329187; conditions: previously published study; cited from earlier work
[4] = HCT-8, in vitro, read-out: C. parvum EC50
[5] = pH 2, represents stomach, read-out: Solubility (pH 2)

SMILES | A → B Papp, fold lower than BKI1369 and BKI1294 (Caco-2 cells) | Effect on C. parvum levels/growth (C. parvum [1]; hollow fiber model, compound alone, 80 µM once daily) | Effect on C. parvum levels with elacridar coadministered (C. parvum [1]; hollow fiber model, elacridar coadministered) | Reduction in C. parvum levels with elacridar (80 µM) coadministered (C. parvum [1]; hollow fiber, 80 µM BKI1318 once daily plus 80 µM elacridar) | Efficacy in neonatal mouse model of Cryptosporidium infection (Cryptosporidium) | EC50 (Cryptosporidium parvum; [4]) | EC50 (Cryptosporidium parvum; nonpolarized HCT-8 cells, BKI1318 alone, read-out: EC50 (±standard error) against C. parvum) | solubility [2, 5] | solubility ([2]; pH 6.5, represents small intestine, read-out: Solubility (pH 6.5)) | C. parvum reduction in mouse model of cryptosporidiosis (C. parvum [3]) | Reduction of C. parvum levels over the course of the study (C. parvum [1]; hollow fiber model, polarized HCT-8 cells)
CCOc1ccc2cc(-c3nn(CC4CCNCC4)c4ncnc(N)c34)ccc2n1 [BKI1318] | approximately 50 fold | did not decrease; also recorded: no effect | reduced C. parvum levels by an order of magnitude | approximately 1 log | efficacious | 3.2 µM | 1.6 ± 1.5 µM | > 100 µM | 56 µM (≈ 22.6 µg/mL) | – | –
CCOc1ccc2cc(-c3nn(CC4CCN(C)CC4)c4ncnc(N)c34)ccc2n1 [BKI1369] | – | – | – | – | efficacious | 2.3 µM | – | > 100 µM | – | > 2 log | > 3 orders of magnitude
